Assay results reported in the NIST ThermoML archive (doi:10.1021/je300504f).
Values joined by “and” are separate entries in the source; they are usually repeats but may differ in a detail not shown here. Equal values may be shown once. Numbers after ± are expanded uncertainties.

Columns and labels:
[1] = Molar enthalpy of transition or fusion; conditions: Crystal; DSC
[2] = Crystal; for Normal melting temperature: DTA

| SMILES | Molar enthalpy of transition or fusion [1] | Normal melting temperature [2] | vapor or sublimation pressure ([2]; 333.2 K) | vapor or sublimation pressure ([2]; 338.2 K) | vapor or sublimation pressure ([2]; 348.2 K) | vapor or sublimation pressure ([2]; 358.2 K) | further results |
| --- | --- | --- | --- | --- | --- | --- | --- |
| Fc1c(F)c(F)c(-c2c(F)c(F)c(F)c(F)c2F)c(F)c1F [perfluorobiphenyl] | 4.9 ± 0.311 kcal/mol | 66.5 ± 0.7 °C | – | – | – | – | – |
| FC(F)(F)C(F)(F)C(F)(F)C(F)(F)C(F)(F)C(F)(F)C(F)(F)C(F)(F)C(F)(F)C(F)(F)C(F)(F)C(F)(F)C(F)(F)C(F)(F)C(F)(F)F [perfluoropentadecane] | 8.39 ± 0.191 kcal/mol | 115.0 ± 0.7 °C | 0.00776 ± 0.00078 kPa | 0.0139 ± 0.0014 kPa | 0.0408 ± 0.0041 kPa | 0.1119 ± 0.011 kPa | vapor or sublimation pressure ([2]; 312.1 K): 0.0006 ± 6e-05 kPa; vapor or sublimation pressure ([2]; 323.2 K): 0.0025 ± 0.00025 kPa; vapor or sublimation pressure ([2]; 343.3 K): 0.0238 ± 0.0024 kPa; vapor or sublimation pressure ([2]; 353.1 K): 0.0662 ± 0.0066 kPa; vapor or sublimation pressure ([2]; 363.2 K): 0.1796 ± 0.018 kPa; vapor or sublimation pressure ([2]; 368.2 K): 0.2908 ± 0.029 kPa |
| FC(F)(F)C(F)(F)C(F)(F)C(F)(F)C(F)(F)C(F)(F)C(F)(F)C(F)(F)C(F)(F)C(F)(F)C(F)(F)C(F)(F)C(F)(F)F [perfluorotridecane] | 6.67 ± 0.239 kcal/mol | 88.6 ± 0.7 °C | – | – | – | 1.147 ± 0.11 kPa | vapor or sublimation pressure ([2]; 313.2 K): 0.0143 ± 0.0014 kPa; vapor or sublimation pressure ([2]; 318.4 K): 0.0253 ± 0.0025 kPa; vapor or sublimation pressure ([2]; 323.4 K): 0.0443 ± 0.0044 kPa; vapor or sublimation pressure ([2]; 329.3 K): 0.0796 ± 0.008 kPa; vapor or sublimation pressure ([2]; 333.5 K): 0.1199 ± 0.012 kPa; vapor or sublimation pressure ([2]; 339.3 K): 0.2077 ± 0.021 kPa; vapor or sublimation pressure ([2]; 343.3 K): 0.297 ± 0.03 kPa; vapor or sublimation pressure ([2]; 349.2 K): 0.5217 ± 0.052 kPa; vapor or sublimation pressure ([2]; 354.1 K): 0.8357 ± 0.084 kPa |
| FC(F)(F)C(F)(F)C(F)(F)C(F)(F)C(F)(F)C(F)(F)C(F)(F)C(F)(F)C(F)(F)C(F)(F)C(F)(F)C(F)(F)F [hexacosafluorododecane] | 5.78 ± 0.311 kcal/mol | 73.5 ± 0.7 °C | 0.4571 ± 0.046 kPa | 0.7269 ± 0.073 kPa | 1.63 ± 0.16 kPa | – | vapor or sublimation pressure ([2]; 313.3 K): 0.0672 ± 0.0067 kPa; vapor or sublimation pressure ([2]; 318.2 K): 0.1074 ± 0.011 kPa; vapor or sublimation pressure ([2]; 323.2 K): 0.1781 ± 0.018 kPa; vapor or sublimation pressure ([2]; 328.2 K): 0.2832 ± 0.028 kPa; vapor or sublimation pressure ([2]; 343.2 K): 1.039 ± 0.1 kPa |
| FC(F)(F)C(F)(F)C(F)(F)C(F)(F)C(F)(F)C(F)(F)C(F)(F)C(F)(F)C(F)(F)C(F)(F)C(F)(F)C(F)(F)C(F)(F)C(F)(F)C(F)(F)C(F)(F)C(F)(F)C(F)(F)C(F)(F)C(F)(F)F [dotetracontafluoroeicosane] | 12 ± 0.263 kcal/mol | 163.1 ± 0.7 °C | – | – | – | – | – |
| FC(F)(F)C(F)(F)C(F)(F)C(F)(F)C(F)(F)C(F)(F)C(F)(F)C(F)(F)C(F)(F)C(F)(F)C(F)(F)C(F)(F)C(F)(F)C(F)(F)C(F)(F)C(F)(F)F [tetratriacontafluorohexadecane] | 9.25 ± 0.191 kcal/mol | 126.6 ± 0.7 °C | – | – | – | – | – |
| FC(F)(F)C(F)(F)C(F)(F)C(F)(F)C(F)(F)C(F)(F)C(F)(F)C(F)(F)C(F)(F)C(F)(F)C(F)(F)C(F)(F)C(F)(F)C(F)(F)C(F)(F)C(F)(F)C(F)(F)C(F)(F)C(F)(F)C(F)(F)C(F)(F)C(F)(F)C(F)(F)C(F)(F)F [perfluorotetracosane] | 15.1 ± 0.406 kcal/mol | 188.0 ± 0.7 °C | – | – | – | – | – |
| FC(F)(F)C(F)(F)C(F)(F)C(F)(F)C(F)(F)C(F)(F)C(F)(F)C(F)(F)C(F)(F)C(F)(F)C(F)(F)C(F)(F)C(F)(F)C(F)(F)F [triacontafluorotetradecane] | 7.53 ± 0.215 kcal/mol | 102.5 °C | 0.0315 ± 0.0032 kPa | 0.053 ± 0.0053 kPa | 0.161 ± 0.016 kPa | 0.4128 ± 0.041 kPa and 0.4025 ± 0.04 kPa | vapor or sublimation pressure ([2]; 313.2 K): 0.00349 ± 0.00035 kPa; vapor or sublimation pressure ([2]; 318.2 K): 0.00664 ± 0.00066 kPa; vapor or sublimation pressure ([2]; 328.2 K): 0.0191 ± 0.0019 kPa; vapor or sublimation pressure ([2]; 343.2 K): 0.0971 ± 0.0097 kPa; vapor or sublimation pressure ([2]; 353.1 K): 0.2493 ± 0.025 kPa |
